Entries after “also recorded” stand apart in the source; their conditions may differ. Read-outs that look alike come from different tables or passages of the source. Ends that are not written are not given here. Peptide text beside a SMILES is read from it.
Columns and labels:
[1] = tested on: cerebellar microexplants; test: cerebellar microexplant survival assay, 3-NP/glutamate injury; format: cell-based, rat; details: for neuroprotective activity compared to NRP-5 RG / concentration of maximal neuroprotective effect: NRP-5 RG analogues
Method: Toxicological and drug administration experiments were designed such that 1/100 parts of toxin and neuroprotective drug were administered simultaneously to the freshly prepared cerebellar microexplants derived from P-4 or P8 rats. Glutamate was prepared as a 50 mM stock solution in MilliQ water while 50 mM 3-nitropropionic acid was pH-adjusted (pH 6.8-7.2) in MilliQ water. The concentrations of the oxidative stress inducing toxin, 3-nitropropionic acid (3-NP), and the excitotoxin, glutamate, in the assay were 0.5 mM each. Lyophilized peptides were reconstituted in PBS or 100 μg/ml human transferrin as a 10 μM stock solution. Subsequently, serial dilutions were made. Cerebellar microexplants were cultivated for 48-72 hours at 34° C., 5% CO2 in air and 100% humidity before they were fixed by increasing amounts of paraformaldehyde (0.4%, 1.2%, 3% and 4%—each treatment 2-3 min).
For statistical analysis of survival, four fields (each field having an area of 0.65 mm^2) of each fixed cerebellar culture with the highest cell densities were chosen, and cells displaying neurite outgrowth were counted. Statistical significance was measured by Student's t-test.
(§1) Laminated cerebellar cortex was extracted from P3/4, P7/8 rat pups and triturated through gauze having a 125 μm pore size to obtain uniformly sized microexplants. After centrifugation for 3 minutes at 61 g and the pellet was resuspended in StartV medium (Biochrom) and the suspension seeded on poly-D-lysine coated coverslips in 6-well plates and incubated for 3 hrs to allow adherence, before 1 ml StartV per well was added. As described previously, glutamate/3-NP and NRP were also added. The explants are cultivated at 34° C. at 5% CO2 and 100% humidity for 48-72 hrs. BrdU was administered at start of cultivation for proliferation rate measurements and cells are counted per microscopic field after 48-72 hrs.
Cerebellar Microexplants were prepared as described in Example 9 with the addition of SDF-1 as described, in addition to glutamate/3-NP, and NRP.
Cerebellar microexplants were prepared as described in Example 9 with the addition of SDF-1, Wortmannin and PD98059 (both Calbiochem), as described, in addition to glutamate/3-NP, and NRP.

[2] = tested on: mouse neural stem cells; test: haptotactic migration assay, mouse neural stem cells; format: cell-based
Method: (§2) NRPs were tested for migration-inducing/chemoattractive activity on mouse neural stem cells, EGF-dependent immortalized mouse neural stem cell line MEB5 and wild-type PC-12 cells in a haptotactic migration assay as described below.
(§3) Initial NRP Coating. Control wells of Transwell plates (Coming) with 12 μm pore size were coated in 1.5 ml of the BSA/PBS vehicle. Remaining plates were coated using various concentrations of NRPs ranging between 1-100 ng/ml (prepared in PBS containing 10 ug/ml BSA). The plates were then incubated at 37° C. for 1 hr to coat. Wells were then rinsed 2× with 1 ml sterile PBS.
(§4) Laminin ([…]) for MEB-5 cells, PDL (50 μg/ml)+Matrigel for mouse primary stem cells and fibronectin (25 ug/ml)+matrigel for PC-12 cells were used as extracellular matrix (ECM) coating for the cells. All ECM compounds were diluted in PBS. 1.5 ml of the ECM per well was incubated for 2 hrs at room temperature. The wells were then rinsed once with Iml serum-free media (e.g. NB/B27) followed by 1 ml PBS wash.
A 5 ug/mL PDL/PLL mixture (in PBS) was used to coat inserts. Subsequently the inserts were rinsed with MilliQ water.
Transferring to Media and Cell Seeding: Appropriate medium (MEB-5 cells: DMEM-high glucose+N2 (growth medium supplement from Invitrogen)+10 ng/biotin+2 mM L-glutamine, primary stem cells: NSA-medium from Euroclone and for PC-12 cells: NB/B27 medium) was transferred into the 12-well plates. […] Plates were fixed at 1-2 days in vitro (DIV).
Fixation: Inserts were discarded and wells fixed in successive dilutions of PFA (0.4, 1.2, 3 and 4%) for 3-5min in each dilution. […] The wells were rinsed and stored in PBS until counting.
A haptotactic migration assay was performed according to the description of Example 10 using rat NRP-9SD (SEQ ID NO:34) (4 nM) and mouse NRP-7SW (SEQ ID NO:24) (0.4 nM) as attractants in a Boyden chamber

[3] = tested on: cerebellar microexplants; test: cerebellar microexplant proliferation assay under injury (BrdU-positive nuclei); format: cell-based, rat
Method: Using the toxins described above, cerebellar explants were exposed for 24 hours, at the beginning of culturing to dilutions of NRP and 0.1 μM BrdU. Subsequently, 80% of the medium was changed without addition of new toxins and NRPs. The cerebellar cultures were fixed as described above after 3 days in vitro. The detection of the incorporated BrdU level was performed as described previously. Under these conditions, over 99% of the cells in the cerebellar population were neurons. Therefore any increase in cell number after NRP administration was most likely due to neuronal cell proliferation.
For statistical analysis of proliferation four fields (each field having an area of 0.65 mm^2) of each fixed cerebellar culture displaying highest density of BrdU-positive nuclei were chosen, and BrdU-positive nuclei were counted. Statistical significance was measured by Student's t-test.
as §1

[4] = tested on: wild-type PC-12 cells; test: haptotactic migration assay, PC-12 cells; format: cell-based; details: 50 ng/ml coating, 200,000 cells
Method: as §2, §3, §4
(§5) A 5 ug/mL PDL/PLL mixture (in PBS) was used to coat inserts. Subsequently the inserts were rinsed with MilliQ water. […]

[5] = tested on: MEB-5 cells; test: haptotactic migration assay, MEB-5 cells; format: cell-based, mouse; details: 10 ng/ml coating, 200,000 cells
Method: as §2, §3, §4, §5

[6] = tested on: OTCs of rat embryonic forebrain; test: embryonic forebrain OTC migration assay (medial ganglionic eminence to cortical anlage); format: cell-based
Method: OTCs of rat embryonic forebrain were prepared as described. Briefly, pregnant rats at E17 gestation were sacrificed, the fetuses rapidly removed. Coronal slices of the forebrain were cut at 400 μm thickness and placed onto millicell PICM ORG50 membranes (Millipore) in 3 cm Petri dishes containing 1 ml of DMEMI/F12, 6.5 mg/ml glucose, 0.1 mM glutamine and 10% FCS for 34 hrs. Afterwards the medium was exchanged to 1 ml Neurobasal/B27, 6.5 mg/ml glucose, 0.1 mM glutamine, to which 10 μl PBS, NRP, or SDF-1 were added for the indicated concentrations and a small DiI (1,1′-dioctodecycyl-3,3,3′3-tetramethylindocarbocyanine) crystal of uniform size was placed in the medial ganglionic eminence (n=10-15) under a stereomicroscope. After 24 hrs cultivation the total number or migrated neurons dispersed in the ganglionic eminence and cortex were counted under an inverted fluorescent microscope.

[7] = tested on: neural stem cells; test: neural stem cell differentiation assay, neuronal differentiation and axonal outgrowth; format: cell-based, mouse; details: together with BrdU for 24 hrs
Method: Neural stem cells were derived from E15 C3H mice forebrain and cultured as neurospheres in the presence of 20 ng/ml EGF and 10 ng/ml bFGF as described in Gritti et al. (2001). Briefly, timed pregnant mice were sacrificed and the embryos removed. Under sterile conditions the brains were removed and the forebrains dissected. The tissue was dissociated by trituration and pelleted by 75 g centrifugation for 10 minutes and the cells seeded in non-coated tissue culture flasks in NSA medium with growth factors. For passaging neurospheres were triturated and seeded as single cells.
Upon reaching a sufficient size, neurospheres were dissociated by trituration and plated at a density of 200,000 cells per well on laminin-coated 13 mm diameter coverslips that had been placed in Nunc 24 well plates. The plating medium was a 1:1 mixture of DMEM/F12 supplemented with N2 and Neurobasal supplemented with B27 and 2 mM glutamine. To enhance survival after plating the medium contained 2 ng/ml bFGF. After 24 h the medium was replaced with a neuronal differentiation-promoting medium (1:3 mixture of DMEM/F12 supplemented with N2 and Neurobasal supplemented with B27 and 2 mM glutamine) and except for the controls the test compound or IGF-1 was added simultaneously. The medium with fresh compound was exchanged every other day. Seven days after plating the differentiating cells were incubated for 20 minutes in differentiation medium containing 100 ng/ml Syto21 to label the nuclei of viable cells. Subsequently, they were fixed with 4% paraformaldehyde and immunostained with a mouse anti-βIII tubulin antibody and a goat anti-mouse Cy3-coupled secondary antibody.
After staining the coverslips were removed from the tissue culture plate and mounted on […], using Immunofluore fluorescent mounting medium. To analyse the percentage of neurons of total cells, with a Zeiss axiophot microscope, equipped with Axoivision software, at 20× magnification images of two random fields per well were taken in the red (tubulin stained neurons) and green (Syto21 stained nuclei) fluorescent channel. Neurons and nuclei per field were counted and the neuronal percentage of total cell number determined.

REGRRDAPGRAAA-NH2 [SEQ ID NO:46, NRP-5 RG analogue, C-terminal GG-domain substituted]
only concentration with statistically significant effect [1]: 100 nM
neuroprotective activity compared to NRP-5 RG [1]: had less effect than NRP-5 RP

COC[C@H]1OC(=O)c2coc3c2[C@@]1(C)C1=C(C3=O)[C@@H]2CCC(=O)[C@@]2(C)C[C@H]1OC(C)=O [wortmannin, reference compound]
effect of inhibitor alone under vehicle and injury conditions ([1]; without NRP): no significant effect after vehicle and injury conditions without the NRP

COc1cccc(-c2cc(=O)c3ccccc3o2)c1N [PD98509, reference compound]
effect of inhibitor on NRP-induced increase in migrating NSC ([2]; NRP-9 SD (4 nM), 15 μM PD98509): almost completely blocked; also recorded: inhibited
effect of inhibitor alone under vehicle and injury conditions [1]: only modest toxicity
effect of inhibitor / neutralizing antibody on NRP neuroprotective activity ([1]; with NRP-9 SD, antibody 1 μg/ml 72 hours, wortmannin 100 nM): abolished the neuroprotective activity of NRP; also recorded: completely blocked neuroprotective activity

REAAADAPGRAGG-NH2 [SEQ ID NO:44, NRP-5 RG analogue]
concentration of maximal neuroprotective effect [1]: about 1 pM
neuroprotective activity compared to NRP-5 RG [1]: did not significantly change in the activity profile

AAARRDAPGRAGG-NH2 [SEQ ID NO:45, NRP-5 RG analogue]
concentration of maximal neuroprotective effect [1]: about 1 pM
neuroprotective activity compared to NRP-5 RG [1]: even higher neuroprotective activity than the original NRP-5 RG

GTPGRAEAGGQ-NH2 [NRP-4 segment GQ, 11-mer of NRP-4]
up regulation in the proliferation rate compared to injured cerebellar microexplants ([3]; 10 nM): 132.2%
concentration at which proliferation induction was observed ([3]; 3-NP/glutamate, NRP and BrdU 24 hrs, counted after 72 hrs): 10 nM
concentration range of maximal biological activity for survival ([1]; NRP simultaneous with 3-NP/glutamate, 48 hrs): 10-100 nM
survival rates after severe injury ([1]; nanomolar concentrations): 50%
concentrations with statistically significant effects ([1]; simultaneous, 48 hrs, units in value): 10 pM, 100 pM, 10 nM and 100 nM

GTPGRAEAGGQVSPCLAASCSQAYG-NH2 (cysteine pairing not given here) [NRP-4 GG, 25-mer fragment of NRP-4]
more PC-12 cells migrated compared with BSA vehicle [4]: 80.8%
more E14 cells migrated compared with BSA-vehicle ([2]; 10 ng/ml coating, 200,000 cells): 93.7%
more MEB-5 cells migrated compared with BSA-vehicle [5]: 195%

REGRRDAAAAAGG-NH2 [SEQ ID NO:47, NRP-5 RG analogue, PGR-domain substituted]
neuroprotective activity compared to NRP-5 RG [1]: some neuroprotective effect at certain concentrations
concentrations with some neuroprotective effect ([1]; units in value): 0.1 pM, 10 pM and 100 nM

SDF-1: chemokine stromal-derived factor, 63 amino acid long mature human SDF-1 [reference compound]
potency compared to NRP [6]: far less potent than NRP
number of cells attracted ([2]; 100 nM coating): attracted a similar number of cells, as did the 0.4 nM mouse NRP-7SW
neuroprotection compared to NRP [1]: narrow dose range of efficacy; also recorded: only a limited neuroprotective effect
neuroprotection ([1]; 10 nM, 0.5 mM 3-NP/glutamate 48 hrs): less than 30%

CC(C)C[C@H](NC(=O)[C@H](CS)NC(=O)[C@@H]1CCCN1C(=O)[C@H](Cc1c[nH]cn1)NC(=O)[C@H](CC(C)C)NC(=O)[C@H](CO)NC(=O)CNC(=O)[C@@H]1CCCN1C(=O)[C@H](C)NC(=O)[C@H](CCCNC(=N)N)NC(=O)[C@H](CCCNC(=N)N)NC(=O)[C@H](C)NC(=O)[C@H](CCC(=O)O)NC(=O)[C@@H]1CCCN1C(=O)[C@H](CC(=O)O)NC(=O)[C@@H](N)CCCCN)C(=O)N[C@@H](C)C(=O)N[C@@H](C)C(=O)N[C@@H](CO)C(=O)N[C@@H](CS)C(=O)N[C@@H](CO)C(=O)N[C@@H](C)C(=O)N[C@@H](C)C(=O)NCC(N)=O [NRP-2 segment KG] (H-KDPEARRAPGSLHPCLAASCSAAG-NH2)
cytotoxicity [1]: no cytotoxicity

SEPEARRAQGGQIPSERVLSD-NH2 [NRP-9 segment SD, 21-mer of rat NRP-9]
cells attracted compared to control condition ([2]; 4 nM): Nearly four times
concentration range of maximal neuronal survival activity ([1]; 0.5 mM 3-NP/glutamate, 48 hrs): 0.1 to 10 pM

B1: NRP-9: rat ortholog of mouse NRP-7 (protein)
chain: MLKLNEPKPGVVTSEELTGSGIWSSASGPNCSQHRDGEDGGCGRFINLAGNRTQRGCFPEAFPLLQAEPAEYGGPRSGHRLLRGSRGSEPEARRAQGGQIPSERVLSD
modifications: RAT
proliferation rate during differentiation of NSC [7]: an increase in the proliferation rate

Source: patent US7563862B2, “Neural regeneration peptides and methods for their use in treatment of brain damage” (Neuren Pharmaceuticals Limited, priority 2001, dated 2009)
